Each structure is given as a SMILES string.

Assay [1] has as its system LPS-induced TNF-α release in peripheral blood mononuclear cells (PBMCs). The assay can be described thus: PDE4 inhibitory activity in the PBMCs assay (LPS-induced TNF-α release). The assay is classed as cell-based. The settings on record: human PBMCs, LPS 3 ng/ml, 18 hours, TNF-α by ELISA. As to the method: The assay, which is based on the known inhibitory activity exerted by PDE4 inhibitors on the lipopolysaccharides (LPS)-induced tumour necrosis factor-alpha (TNF-α release in peripheral blood mononuclear cells (PBMCs), was performed according to a method previously described (Hatzelmann A. et al., J. Pharmacol. Exp. Ther., 2001; 297:267-279; Draheim R. et al., J. Pharmacol. Exp. Ther., 2004; 308:555-563. Cryopreserved human PBMCs, (100 μl/well) were incubated in 96-well plates (10^5 cells/well), for 30 min, in the presence or absence (50 microl) of the test compounds whose concentrations ranged from 10^−12 M to 10^−6M. Subsequently, LPS (3 ng/ml) was added. After 18 hours of incubation at 37° C. in a humidified incubator under an atmosphere of 95% air and 5% CO2, culture medium was collected and TNF-α measured by ELISA.
The effects of the tested compounds were calculated as percentage of inhibition of TNF-α release, assuming LPS-induced TNF-α production in the absence of inhibitor compound as 100% and basal TNF-α production of PBMCs in the absence of LPS as 0%.
(An ELISA detects its analyte on a solid surface through an enzyme-linked reagent.)

The test system of a further assay is PDE4 enzyme. Kind of assay: In vitro PDE4 inhibitory activity in the cell free assay (cAMP disappearance, U937 cell supernatant). The assay is classed as biochemical, human. The settings on record: 1.6 μM cAMP, 30° C. 30 minutes. As to the method:
The U937 human monocytic cell line was used as source of PDE4 enzyme. Cells were cultured, harvested and supernatant fraction prepared essentially as described in Torphy, T. J. et al., J. Pharmacol. Exp. Ther., 1992; 263:1195-1205. PDE4 activity was determined in cells supernatants by assaying cAMP disappearance from the incubation mixtures. 50 μl of cell supernatant were incubated at 30° C. for 30 minutes in a final volume of 200 μl in the presence of 1.6 μM cAMP with or without the test compound (50 μl).
The concentration of the test compounds ranged between 10^−12 M and 10^−6 M. Reactions were stopped by heat inactivation (2.5 minutes at 100° C.) and residual cAMP was measured using an electrochemiluminescence (ECL)-based immunoassay.
Percentage of inhibition of PDE4 activity was calculated, assuming cAMP disappearance in the absence of inhibitors as 100% and cAMP disappearance in heat inactivated samples as 0%.

Assay [2] concerns LPDE4. The assay can be described thus: Inhibition of low affinity LPDE4 (cAMP disappearance). The conditions noted are these: ratio of IC50 values. It is filed as biochemical. From the text: (§1) Advantageously the compounds of the invention are characterized by selectivity toward LPDE4 higher than that toward HPDE4 as obtained by the determination of their IC50. In the case of LPDE4, the IC50 is the molar concentration of the test compound producing 50% inhibition of cAMP disappearance, assessed as described in Cortijo, J. et al., Br. J. Pharmacol., 1993, 108: 562-568, while in the case of HPDE4, the IC50 is the molar concentration of the test compound producing 50% inhibition of the binding of [H^3] rolipram, assessed as described in Duplantier, A. J. et al., J. Med. Chem., 1996; 39: 120-125. Preferably the HPDE4/LPDE4 IC50 ratio for the compounds of the invention is higher than 5, preferably higher than 10, more preferably higher than 20 and even more preferably higher than 100.
(§2) The affinity toward LPDE4 and HPDE4 was assessed as previously described respectively in Cortijo J. et al., Br. J. Pharmacol., 1993, 108: 562-568 and Duplantier A. J. et al., J. Med. Chem., 1996; 39: 120-125. In the case of LPDE4, the IC50 is the molar concentration of the test compound producing 50% inhibition of cAMP disappearance, while in the case of HPDE4, the IC50 is the molar concentration of the test compound producing 50% inhibition of the binding of [H^3] rolipram.

Assay [3] deals with T1, LPDE4.
T1 construct: LPDE4 IC50
The assay is described as above. It is filed as biochemical. The settings on record: 50% inhibition of cAMP disappearance.
Source text: as §1, §2

Another assay concerns the target HPDE4. The assay can be described thus: Competition for high affinity HPDE4 ([H^3] rolipram binding). The settings on record: 50% inhibition of the binding of [H^3] rolipram.
Source text: as §1, §2

Regarding `COc1ccc(C(Cc2c(Cl)cncc2Cl)OC(=O)Cc2ccccc2)cc1OC` (stereo not drawn) [Compound 2, phenyl-acetic acid 2-(3,5-dichloro-pyridin-4-yl)-1-(3,4-dimethoxy-phenyl)-ethyl ester], in assay [1] (PBMC), 89 nM corresponded to half-maximal inhibition (IC50).
`COc1ccc(C(Cc2c(Cl)cncc2Cl)OC(=O)[C@@H](C)c2ccc(CC(C)C)cc2)cc1OC` (stereo partly drawn) [Compound 1, (S)-2-(4-isobutyl-phenyl)-propionic acid 2-(3,5-dichloro-pyridin-4-yl)-1-(3,4-dimethoxy-phenyl)-ethyl ester]: the IC50 came to 69 nM in assay [1] (PBMC) and 118 nM in the assay on PDE4 enzyme.
The like results for `CC(C)(C)OC(=O)N[C@@H](C(=O)OC(Cc1c(Cl)cncc1Cl)c1ccc(OC(F)F)c(OCC2CC2)c1)c1ccccc1` (stereo partly drawn) [Compound 6, (R)-tert-butoxycarbonylamino-phenyl-acetic acid 1-(3-cyclopropylmethoxy-4-difluoromethoxy-phenyl)-2-(3,5-dichloro-pyridin-4-yl)-ethyl ester] were, in that order, 95 nM and 9 nM.
`CC(C)Cc1ccc(C(C)C(=O)OC(Cc2c(Cl)c[n+]([O-])cc2Cl)c2ccc(OC(F)F)c(OCC3CC3)c2)cc1` (stereo not drawn) [Compound 15, 2-(4-isobutyl-phenyl)-propionic acid 1-(3-cyclopropylmethoxy-4-difluoromethoxy-phenyl)-2-(3,5-dichloro-1-oxy-pyridin-4-yl)-ethyl ester]: the HPDE4/LPDE4 in the assay on LPDE4 [2] was 273. Further, the IC50 with LPDE4 [3] was found to be 0.169 nM; in assay [1] it was 15 nM; at HPDE4 it was 2.17 nM; with PDE4 enzyme, 8.6 nM.
On to `O=C(OC(Cc1c(Cl)cncc1Cl)c1ccc(OC(F)F)c(OCC2CC2)c1)c1ccc(OC(F)F)c(OCC2CC2)c1` (stereo not drawn) [Compound 11, 3-cyclopropylmethoxy-4-difluoromethoxy-benzoic acid 1-(3-cyclopropylmethoxy-4-difluoromethoxy-phenyl)-2-(3,5-dichloro-pyridin-4-yl)-ethyl ester], for which the HPDE4/LPDE4 with LPDE4 [2] is reported as 1319. Moreover, the IC50 with LPDE4 [3] amounted to 0.116 nM; in assay [1] (PBMC) it was 51 nM; on HPDE4, 153 nM; in the assay with PDE4 enzyme, 12 nM.
With `COc1ccc(C(Cc2c(Cl)cncc2Cl)OC(=O)C2(c3ccccc3)CC2)cc1OC` (stereo not drawn) [Compound 3, 1-phenyl-cyclopropanecarboxylic acid 2-(3,5-dichloro-pyridin-4-yl)-1-(3,4-dimethoxy-phenyl)-ethyl ester], the IC50 in assay [1] (PBMC) worked out at 52 nM; with PDE4 enzyme it was 118 nM.
For `COc1ccc(C(O)Cc2c(Cl)c[n+]([O-])cc2Cl)cc1OC1CCCC1` (stereo not drawn) [Compound 20], the HPDE4/LPDE4 in the assay with LPDE4 [2] came out at 394. For the same compound, the IC50 in the assay with LPDE4 [3] came to 0.759 nM; on HPDE4, 299 nM.
In the case of `N[C@@H](C(=O)OC(Cc1c(Cl)cncc1Cl)c1ccc(OC(F)F)c(OCC2CC2)c1)c1ccccc1` (stereo partly drawn) [Compound 8, (R)-amino-phenyl-acetic acid 1-(3-cyclopropylmethoxy-4-difluoromethoxy-phenyl)-2-(3,5-dichloro-pyridin-4-yl)-ethyl ester], the IC50 in the assay on PDE4 enzyme is 22 nM.
For the compound `CC(C)Cc1ccc(C(C)C(=O)OC(Cc2c(Cl)cncc2Cl)c2ccc(OC(F)F)c(OCC3CC3)c2)cc1` (stereo not drawn) [Compound 12, 2-(4-isobutyl-phenyl)-propionic acid 1-(3-cyclopropylmethoxy-4-difluoromethoxy-phenyl)-2-(3,5-dichloro-pyridin-4-yl)-ethyl ester], the IC50 in assay [1] (PBMC) is 456 nM; with PDE4 enzyme, 12 nM.
For the compound `COc1ccc(C(Cc2c(Cl)cncc2Cl)OC(=O)C(C)c2ccc(CC(C)C)cc2)cc1OC1CCCC1` (stereo not drawn) [Compound 9, 2-(4-isobutyl-phenyl)-propionic acid 1-(3-cyclopentyloxy-4-methoxy-phenyl)-2-(3,5-dichloro-pyridin-4-yl)-ethyl ester], in the assay on LPDE4 [2], the HPDE4/LPDE4 was 541. In addition, the IC50 in the assay with LPDE4 [3] is 0.738 nM; in assay [1] (PBMC), 85 nM; on HPDE4 it was 399 nM; in the assay with PDE4 enzyme, 22 nM.
On to `O=C(OC(Cc1c(Cl)c[n+]([O-])cc1Cl)c1ccc(OC(F)F)c(OCC2CC2)c1)c1ccc(OC(F)F)c(OCC2CC2)c1` (stereo not drawn) [Compound 14, 3-cyclopropylmethoxy-4-difluoromethoxy-benzoic acid 1-(3-cyclopropylmethoxy-4-difluoromethoxy-phenyl)-2-(3,5-dichloro-1-oxy-pyridin-4-yl)-ethyl ester], for which, in assay [1] (PBMC), the IC50 was 2 nM.
As to `COc1ccc(C(Cc2c(Cl)c[n+]([O-])cc2Cl)OC(=O)C(C)c2ccc(CC(C)C)cc2)cc1OC` [Compound 13, (S)-2-(4-isobutyl-phenyl)-propionic acid 2-(3,5-dichloro-1-oxy-pyridin-4-yl)-1-(3,4-dimethoxy-phenyl)-ethyl ester], half-maximal inhibition in assay [1] (PBMC) (IC50) required 13 nM. This IC50 is about 6.5-fold higher than that of the compound before.
On to `COc1ccc(C(=O)OC(Cc2c(Cl)cncc2Cl)c2ccc(OC)c(OC)c2)cc1OC` (stereo not drawn) [Compound 4, 3,4-dimethoxy-benzoic acid 2-(3,5-dichloro-pyridin-4-yl)-1-(3,4-dimethoxy-phenyl)-ethyl ester], for which the figures for the IC50 (in assay [1] (PBMC); in the assay on PDE4 enzyme) were 34.2 nM and 3.4 nM, respectively.
Regarding `COc1ccc(C(Cc2c(Cl)cncc2Cl)OC(=O)C(C)c2ccc(N)cc2)cc1OC` (stereo not drawn) [Compound 16, 2-(4-amino-phenyl)-propionic acid 2-(3,5-dichloro-pyridin-4-yl)-1-(3,4-dimethoxy-phenyl)-ethyl ester], the IC50 in assay [1] (PBMC) was determined as 36 nM; in the assay with PDE4 enzyme, 6.3 nM.
The like results for `N[C@H](C(=O)OC(Cc1c(Cl)cncc1Cl)c1ccc(OC(F)F)c(OCC2CC2)c1)c1ccccc1` (stereo partly drawn) [Compound 7, (S)-amino-phenyl-acetic acid 1-(3-cyclopropylmethoxy-4-difluoromethoxy-phenyl)-2-(3,5-dichloro-pyridin-4-yl)-ethyl ester] were, in that order, 99 nM and 7 nM.

As a reminder, the IC50 is the point on the concentration scale where inhibition reaches its midpoint.

Values taken from patent US9102619B2, “Derivatives of 1-phenyl-2-pyridinyl alkyl alcohols as phosphodiesterase inhibitors” (Chiesi Farmaceutici S.p.A., priority 2007, dated 2015).
